# Assay results reported in paper PMC7259601 (PLoS ONE, 2020).
# Columns and labels:
# [1] = tested on: SAMP8 mice; experiment: Novel Object Recognition Test (NORT); type: in vivo, mouse
# Experimental: Both male and female mice from the senescence accelerated strain SAMP8 and its control SAMR1 of different ages (see Table S3 for details) were used in these studies. Mice were breed in the animal facilities of the Pharmacy Faculty (University of Barcelona), maintained in a at 22 ± 2 °C controlled temperature in a 12 hr light / dark cycle (lights on at 8:00 am; 300 lux/0 lux) with ad libitum access to food (2018 TEKLAD, Harlan) and water. Male mice were housed individually (males) or in groups of 4-5 animals (females) in plastic colony boxes with a sawdust bedding material. […] SAMR1 mice treated with vehicle were included as a control. All drugs were administered via drinking water and diluted in vehicle. Drug concentration was calculated weekly in function of body weight and corrected in function of drinking water consumption. Cognitive function was evaluated by NORT, social behavior was evaluated by RI and anxiety and motor function were evaluated by EPM and OF. When necessary, animals were deeply anesthetized (80 mg/kg sodium pentobarbital) and brain samples (hippocampus, (prefrontal) cortex) were micro-dissected and processed according to the downstream analysis.
# The protocol was performed as previously described. Briefly, animals were placed in a 90°- two-arm maze. Mice were habituated to the apparatus for 10 min during 3 consecutive days. On day 4, two identical novel objects (A+A or B+B) were placed at the end of each arm and animals performed a 10-min acquisition trial. A 10-min retention trial was carried out 2 hr after the acquisition trial with object A and B. Time exploring the novel (NO) and the familiar object (FO) was measured and a discrimination Index (DI) was defined as (NO-FO)/(NO+FO). In some experiments, a more restrictive threshold was applied and animals exploring less than 5 sec (NO+FO) were excluded from the analysis (Table S3).
# Novel Object Recognition Test (NORT): Time exploring the novel (NO) and the familiar object (FO) was measured and a discrimination Index (DI) was defined as (NO-FO)/(NO+FO). In some experiments, a more restrictive threshold was applied and animals exploring less that 5 sec (NO+FO) were excluded from the analysis (Table S3). Open Field (OF): Locomotor activity was analyzed by video-tracking over the captured images using SMART® (v 2.5.21 (rat) or v3.0 (mice), PanLab, SLU, Spain).
# [2] = tested on: AMPA (agonist radioligand); experiment: CEREP Diversity Panel; type: binding; set-up: dose or concentration left out as unconfirmed
# Experimental: (§1) […]. MAO-A inhibition at 10 μM was 37%, in line with internal data.
# [3] = tested on: kainate (agonist radioligand); experiment: CEREP Diversity Panel; type: binding; set-up: dose or concentration left out as unconfirmed
# Experimental: as §1
# [4] = tested on: alpha 2 (non-selective) (antagonist radioligand); experiment: CEREP Diversity Panel; type: binding; set-up: dose or concentration left out as unconfirmed
# Experimental: as §1
# [5] = tested on: P2Y (agonist radioligand); experiment: CEREP Diversity Panel; type: binding; set-up: dose or concentration left out as unconfirmed
# Experimental: as §1
# [6] = tested on: Ca 2+ channel (L, dihydropyridine site) (antagonist radioligand); experiment: CEREP Diversity Panel; type: binding; set-up: dose or concentration left out as unconfirmed
# Experimental: as §1
# [7] = tested on: opioid (non-selective) (antagonist radioligand); experiment: CEREP Diversity Panel; type: binding; set-up: dose or concentration left out as unconfirmed
# Experimental: as §1
# [8] = tested on: 5-HT (non-selective) (agonist radioligand); experiment: CEREP Diversity Panel; type: binding; set-up: dose or concentration left out as unconfirmed
# Experimental: as §1
# [9] = tested on: KATP channel (antagonist radioligand); experiment: CEREP Diversity Panel; type: binding; set-up: dose or concentration left out as unconfirmed
# Experimental: as §1
# [10] = tested on: s (non-selective) (agonist radioligand); experiment: CEREP Diversity Panel; type: binding; set-up: dose or concentration left out as unconfirmed
# Experimental: as §1
# [11] = tested on: I1 (agonist radioligand); experiment: CEREP Diversity Panel; type: binding; set-up: dose or concentration left out as unconfirmed
# Experimental: as §1
# [12] = tested on: SKCa channel (antagonist radioligand); experiment: CEREP Diversity Panel; type: binding; set-up: dose or concentration left out as unconfirmed
# Experimental: as §1
# [13] = tested on: GABA transporter (antagonist radioligand); experiment: CEREP Diversity Panel; type: binding; set-up: dose or concentration left out as unconfirmed
# Experimental: as §1
# [14] = tested on: P2X (agonist radioligand); experiment: CEREP Diversity Panel; type: binding; set-up: dose or concentration left out as unconfirmed
# Experimental: as §1
# [15] = tested on: Na+ channel (site 2) (antagonist radioligand); experiment: CEREP Diversity Panel; type: binding; set-up: dose or concentration left out as unconfirmed
# Experimental: as §1
# [16] = tested on: PCP (antagonist radioligand); experiment: CEREP Diversity Panel; type: binding; set-up: dose or concentration left out as unconfirmed
# Experimental: as §1
# [17] = tested on: GABA (non-selective) (agonist radioligand); experiment: CEREP Diversity Panel; type: binding; set-up: dose or concentration left out as unconfirmed
# Experimental: as §1
# [18] = tested on: Ca 2+ channel (L, diltiazem site) (benzothiazepines) (antagonist radioligand); experiment: CEREP Diversity Panel; type: binding; set-up: dose or concentration left out as unconfirmed
# Experimental: as §1
# [19] = tested on: alpha 1 (non-selective) (antagonist radioligand); experiment: CEREP Diversity Panel; type: binding; set-up: dose or concentration left out as unconfirmed
# Experimental: as §1
# [20] = tested on: BZD (central) (agonist radioligand); experiment: CEREP Diversity Panel; type: binding; set-up: dose or concentration left out as unconfirmed
# Experimental: as §1
# [21] = tested on: Y (non-selective) (agonist radioligand); experiment: CEREP Diversity Panel; type: binding; set-up: dose or concentration left out as unconfirmed
# Experimental: as §1
# [22] = tested on: KV channel (antagonist radioligand); experiment: CEREP Diversity Panel; type: binding; set-up: dose or concentration left out as unconfirmed
# Experimental: as §1
# [23] = tested on: Cl- channel (GABA-gated) (antagonist radioligand); experiment: CEREP Diversity Panel; type: binding; set-up: dose or concentration left out as unconfirmed
# Experimental: as §1
# [24] = tested on: Ca 2+ channel (L, verapamil site) (phenylalkylamine) (antagonist radioligand); experiment: CEREP Diversity Panel; type: binding; set-up: dose or concentration left out as unconfirmed
# Experimental: as §1
# [25] = tested on: NMDA (antagonist radioligand); experiment: CEREP Diversity Panel; type: binding; set-up: dose or concentration left out as unconfirmed
# Experimental: as §1
smiles,measurement,setting,value
"Nc1nnc(CN[C@@H]2C[C@H]2c2ccc(OCc3ccccc3)cc2)o1 [ORY-2001, vafidemstat]",NORT discrimination capacity,"[1]; 0.32 and 0.96 mg/kg/day (Exp3, Exp4)",completely restored the discrimination capacity
same,"NORT discrimination capacity, short treatment",[1]; 5 day treatment at 0.96 mg/kg/day (Exp5),equally effective as a one month treatment
same,NORT performance of aged SAMP8 mice,"[1]; eight month old, treated 4 months (Exp7)",fully rescued the performance
same,rescue of NORT discrimination deficit,[1]; lowest dose (0.11 mg/kg/day),~ 50%
same,% inhibition,[2],-2%
same,% inhibition,[3],2%
same,% inhibition,[4],3%
same,% inhibition,[5],5%
same,% inhibition,[6],-1%
same,% inhibition,[7],-2%
same,% inhibition,[8],5%
same,% inhibition,[9],3%
same,% inhibition,[10],9%
same,% inhibition,[11],26%
same,% inhibition,[12],-11%
same,% inhibition,[13],-3%
same,% inhibition,[14],3%
same,% inhibition,[15],12%
same,% inhibition,[16],1%
same,% inhibition,[17],6%
same,% inhibition,[18],0%
same,% inhibition,[19],0%
same,% inhibition,[20],-21%
same,% inhibition,[21],-28%
same,% inhibition,[22],-4%
same,% inhibition,[23],31%
same,% inhibition,[24],5%
same,% inhibition,[25],6%
